Data taken from patent publication US6489098B1, “Means and methods for monitoring nucleoside reverse transcriptase inhibitor antiretroviral therapy and guiding therapeutic decisions in the treatment of HIV/AIDS” (ViroLogic, Inc., priority 1998, dated 2002).
Entries after “also recorded” stand apart in the source; their conditions may differ.

Experiments:
[1] = test system: HIV-1 RT mutant resistance test vector M41L-T69SSA-T215Y-L210W-RTV; assay: Phenotypic susceptibility assay, site directed RTV M41L+T69SSA+L210W+T215Y; type: cell-based; settings: L210W introduced with M41L+T69SSA+T215Y
Method: Resistance tests were carried out with resistance test vectors using two host cell types. Resistance test vector viral particles were produced by a first host cell (the resistance test vector host cell) that was prepared by transfecting a packaging host cell with the resistance test vector and the packaging expression vector. The resistance test vector viral particles were then used to infect a second host cell (the target host cell) in which the expression of the indicator gene is measured.
The resistance test vectors containing a functional luciferase gene cassette were constructed and host cells were transfected with the resistance test vector DNA. The resistant test vectors contained patient-derived reverse transcriptase and protease sequences that were either susceptible or resistant to the antiretroviral agents, such as nucleoside reverse transcriptase inhibitors, non-nucleoside reverse transcriptase inhibitors and protease inhibitors. The resistance test vector viral particles produced by transfecting the resistance test vector DNA into host cells, either in the presence or absence of protease inhibitors, were used to infect target host cells grown either in the absence of NRTI or NNRTI or In the presence of increasing concentrations of the drug. The amount of luciferase activIty produced in infected target host cells in the presence of drug was compared to the amount of luciferase produced in infected target host cells in the absence of drug. […] The IC50 values were determined by plotting percent drug inhibition vs. log 10 drug concentration.
Host cells were seeded in 10-cm-diameter dishes and were transfected several days after plating with resistance test vector plasmid DNA and the envelope expression vector. […] HIV capsid protein (p24) levels in the harvested cell culture media were determined by an EIA method as described by the manufacturer (SIAC; Frederick, Md.). […] The inhibitory effect of the drug was determined using the following equation: […]

[2] = test system: patient RTV-757, RTV-844, RTV-937, RTV-964 and RTV-966 (4 or more AZT resistance mutations); assay: Phenotypic susceptibility assay, patient isolates with AZT resistance-associated mutations; type: cell-based, HIV-1
Method: In these experiments patient-derived segment(s) corresponding to the HIV protease and reverse transcriptase coding regions were either patient-derived segments amplified by the reverse transcription-polymerase chain reaction method (RT-PCR) using viral RNA isolated from viral particles present in the serum of HIV-infected individuals or were mutants of wild type HIV-1 made by site directed mutagenesis of a parental clone of resistance test vector DNA. Isolation of viral RNA was performed using standard procedures (e.g. RNAgents Total RNA Isolation System, Promega, Madison Wis. or RNAzol, Tel-Test, Friendswood, Tex.). The RT-PCR protocol was divided into two steps. A retroviral reverse transcriptase [e.g. Moloney MuLV reverse transcriptase (Roche Molecular Systems, Inc., Branchburg, N.J.), or avian myeloblastosis virus (AMV) reverse transcriptase, (Boehringer Mannheim, Indianapolis, Ind.)] was used to copy viral RNA into cDNA. […]
Resistance tests were carried out with resistance test vectors using two host cell types. […] The resistance test vector viral particles were then used to infect a second host cell (the target host cell) in which the expression of the indicator gene is measured. […]

[3] = test system: HIV with RT Thr69→Asp mutation; settings: cited from earlier work

Cc1cn([C@H]2C[C@H](N=[N+]=[N-])[C@@H](CO)O2)c(=O)[nH]c1=O [AZT, zidovudine]
effect on susceptibility (words) [1]: substantial decrease in susceptibility to AZT

Cc1cn([C@H]2C=C[C@@H](CO)O2)c(=O)[nH]c1=O [d4T, stavudine]
fold reduced susceptibility ([2]; four patient viruses with 4 or more AZT resistance mutations (FIG. 6)): 3-6 fold
susceptibility compared to wild-type control RTV ([2]; patient RTV pools with multiple AZT-resistance mutations): decrease in susceptibility to d4T; also recorded: significant decreases in susceptibility to d4T

Nc1ccn([C@H]2CC[C@@H](CO)O2)c(=O)n1 [ddC, zalcitabine]
fold reduction in sensitivity [3]: five-fold
